“And” between values parts separate entries of the source, which are not always exact repeats. Identical values can stand only once.
Test: solvent given as SMILES

SMILES | absorption maximum (in C1CCOC1) | absorption maximum (in CC#N) | absorption maximum (in CO) | absorption maximum (in Cc1ccccc1) | absorption maximum (in ClCCl) | also measured
CCn1c2ccccc2c2cc(/C=C3\C(=O)c4ccccc4S3(=O)=O)ccc21 | 446 nm | 442 nm | 446 nm | 453 nm | 448 nm | absorption maximum (in C1COCCO1): 443 nm; absorption maximum (in CC(C)=O): 442 nm; absorption maximum (in CCOC(C)=O): 441 nm; absorption maximum (in CN(C)C=O): 449 nm; absorption maximum (in CS(C)=O): 454 nm; absorption maximum (in ClC(Cl)Cl): 454 nm
O=C1c2ccccc2C2=Cc3cc4c(cc3B(O)N12)OCO4 |  | 392 nm | 394 nm |  |  | absorption maximum (in CS(C)=O): 396 nm; absorption maximum (in ClC(Cl)Cl): 397 nm
CCCCCCCCCCCCn1c(-c2cc(-c3nc4ccc(C)cc4n3CCCCCCCCCCCC)cc(-c3nc4ccc(C)cc4n3CCCCCCCCCCCC)c2)nc2ccc(C)cc21 |  |  |  |  | 306.5 nm | 
COC(=O)c1cc(=O)n(C)c2cc(-c3ccc(OC)cc3)sc12 | 402 nm | 396 nm | 396 nm | 402 nm |  | absorption maximum (in CN(C)C=O): 402 nm; absorption maximum (in CS(C)=O): 404 nm
Cc1ccc(C)n1-c1ccc(N(C)C)cc1 |  | 306 nm |  |  |  | absorption maximum (in CCCCCC): 304 nm
C[Si]1(C)O[Si](C)(C)c2cc3c(-c4ccccc4F)c4cc(Cl)ccc4nc3cc21 |  |  |  |  | 380 nm | 
N#Cc1c[nH]c2ccccc12 |  | 276.25 nm |  |  |  | absorption maximum (in C1COCCO1): 277.3 nm
CC1=[N+]2C(=C(c3c4ccccc4cc4ccccc34)c3ccc(C)n3[B-]2(F)F)C=C1 | 517 nm | 514 nm | 517 nm | 519 nm | 518 nm | absorption maximum (in CCCCCC): 515 nm and 516 nm; absorption maximum (in CCO): 515 nm; absorption maximum (in CN(C)C=O): 517 nm; absorption maximum (in CS(C)=O): 519 nm; absorption maximum (in ClC(Cl)Cl): 518 nm
O=Cc1c(O)c(-c2nc3ccccc3s2)cc2ccccc12 | 352 nm | 349 nm | 349 nm | 358 nm | 352 nm | absorption maximum (in CC(C)=O): 352 nm; absorption maximum (in CCO): 349 nm; absorption maximum (in CCOC(C)=O): 352 nm; absorption maximum (in CN(C)C=O): 346 nm; absorption maximum (in ClC(Cl)Cl): 352 nm
CC1=C(c2ccc(-c3nc(-c4ccccc4)c(-c4ccccc4)[nH]3)cc2)S[C@]2(C)C1=C1C(=C3c4ccccc4C(C)[C@]32C)C(F)(F)C(F)(F)C1(F)F (stereo partly specified) | 589 nm |  |  |  |  | 
CC1(C)OB(c2cc3ccc4cccc5ccc(c2)c3c45)OC1(C)C |  |  |  | 385 nm |  | 
Cc1cnc(NC(=O)C2=C(O)c3ccccc3S(=O)(=O)N2C)s1 |  | 340 nm | 346 nm |  |  | absorption maximum (in C1COCCO1): 342 nm; absorption maximum (in CCCCO): 350 nm; absorption maximum (in CCCO): 350 nm; absorption maximum (in CCO): 349 nm; absorption maximum (in CCOC(C)=O): 343 nm
N#Cc1c(C#N)c2cc(Br)ccc2c2ccc(Br)cc12 |  |  |  |  |  | absorption maximum (in ClC(Cl)Cl): 350 nm
CCCCCOc1cc2oc(=O)c3c4ccc(N(c5ccccc5)c5ccccc5)cc4c4ccc5cccc6c(c1)c2c3c4c56 | 476 nm |  |  |  |  | 
CC(C)[Si](C#Cc1c2ccc(C(C)(C)C)cc2c(C#Cc2c3ccc(C(C)(C)C)cc3c(C#Cc3c4ccc(C(C)(C)C)cc4c(C#C[Si](C(C)C)(C(C)C)C(C)C)c4ccc(C(C)(C)C)cc34)c3ccc(C(C)(C)C)cc23)c2ccc(C(C)(C)C)cc12)(C(C)C)C(C)C |  |  |  | 570 nm |  | 
CCn1c2ccccc2c2cc(C#Cc3cc(C#Cc4ccc5c(c4)c4ccccc4n5CC)nc(N4CCCCC4)n3)ccc21 | 393 nm |  |  | 395 nm | 397 nm | absorption maximum (in CCOC(C)=O): 391 nm; absorption maximum (in CN(C)C=O): 398 nm
c1cc2c(N3CCCCC3)c3ccc(=[N+]4CCCCC4)cc-3oc2cc1N1CCCCC1 |  |  |  |  | 491 nm | 
c1ccc(-c2nnc(-c3cc(-n4c5ccccc5c5ccccc54)c(-n4c5ccccc5c5ccccc54)cc3-c3nnc(-c4ccccc4)o3)o2)cc1 |  |  |  |  | 361 nm | 

Reference: the Deep4Chem optical property database
